Experimental data reported in patent publication US4593104A, “2-halo-N-(azole-1-yl-methyl)-substituted acetanilides” (BASF Aktiengesellschaft, priority 1976, dated 1986).

How the values were obtained:
Assay in all cases: preemergence treatment in the greenhouse, % damage
Setaria spp. = type: in vivo
Text: (§1) The vessels employed were plastic flowerpots having a volume of 300 cm^3; the substrate was a sandy loam containing about 1.5% humus. The seeds of the test plants (see Table 1) were sown shallow, and separated according to species. In the case of Cyperus esculentus, pregerminated tubers were planted. In the preemergence treatment, the active ingredients were then immediately applied to the surface of the soil. They were suspended or emulsified in water as the vehicle, and sprayed through atomizing nozzles. After the agents had been applied, the vessels were lightly sprinkler-irrigated to set germination and growth going, and to activate the chemical agents. The vessels were then covered with transparent plastic hoods until the plants had taken root. This cover ensured uniform germination of the test plants (to the extent that this was not impaired by the chemicals), and prevented readily volatile substances from evaporating.
(§2) For postemergence treatment, the plants were first grown to a height of from 3 to 10 cm, depending on their habit, before treated. Hoods were not placed on the pots. The experiments were set up in the greenhouse, hotter areas (25° to 40° C.) being preferred for heat-loving species, and 15° to 30° C. for plants from moderate climates. The experiments were carried out for from 4 to 6 weeks. During this period the plants were tended and their reaction to the various treatments was assessed. The following tables contain the substances investigated, the application rates in kg/ha of active ingredient, and the test plant species. Assessments were made on a 0 to 100 scale, 0 denoting no damage or normal emergence, and 100 denoting no emergence or complete destruction of at least the visible plant parts.

Echin. c.g. = type: in vivo
Text: as §1, §2

Cyp. diff. = type: in vivo
Text: as §1, §2

Amar. retro. = type: in vivo
Text: as §1, §2

Alopec. myosur. = type: in vivo
Text: as §1, §2

Sorgh. halep. = type: in vivo
Text: as §1, §2

Zea mays = type: in vivo
Text: as §1, §2

Sorgh. bicol. = type: in vivo, Sorghum bicolor
Text: as §1, §2

Beta vulg. = type: in vivo, Beta vulgaris
Text: as §1, §2

Glyc. max = type: in vivo, Glycine max
Text: as §1, §2

Bromus spp. = type: in vivo
Text: as §1, §2

Matric. spp. = type: in vivo; conditions: 1.0 kg/ha
Text: as §1, §2

Compound | % damage (Setaria spp.; 2.0 kg/ha) [%] | % damage (Echin. c.g.; 2.0 kg/ha) [%] | % damage (Cyp. diff.; 2.0 kg/ha) [%] | % damage (Amar. retro.; 2.0 kg/ha) [%] | % damage (Alopec. myosur.; 2.0 kg/ha) [%] | % damage (Sorgh. halep.; 2.0 kg/ha) [%] | further results
CCc1cccc(CC)c1N(Cn1nc(C)nc1C)C(=O)CCl [Compound 162] | 100 | 100 | 100 | 100 | 95 | 95 | –
Cc1ccc(C)c(N(Cn2nc(C)cc2C)C(=O)CCl)c1 [Compound 52] | 90 | 95 | 100 | 100 | 60 | 60 | –
CC(C)c1ccccc1N(Cn1cccn1)C(=O)CCl [Compound 4] | 90 | 100 | 90 | 95 | 95 | 65 | –
Cc1cc(C)n(CN(C(=O)CCl)c2ccccc2C(C)C)n1 [Compound 37] | – | – | – | – | – | – | % damage (Setaria spp.; 1.0 kg/ha): 100%; % damage (Echin. c.g.; 1.0 kg/ha): 100%; % damage (Cyp. diff.; 1.0 kg/ha): 100%; % damage (Amar. retro.; 1.0 kg/ha): 100%; % damage (Alopec. myosur.; 1.0 kg/ha): 30%; % damage (Sorgh. halep.; 1.0 kg/ha): 80%
Cc1ccc(Cl)cc1N(Cn1cccn1)C(=O)CCl [Compound 24] | 85 | – | – | 95 | 100 | – | % damage (Zea mays; 2.0 kg/ha): 0%; % damage (Sorgh. bicol.; 2.0 kg/ha): 10%; % damage (Beta vulg.; 2.0 kg/ha): 60%; % damage (Glyc. max; 2.0 kg/ha): 10%
CCc1cccc(C)c1N(Cn1cc(Cl)cn1)C(=O)CCl | – | – | – | – | – | – | % damage (Setaria spp.; 1.0 kg/ha): 85%; % damage (Echin. c.g.; 1.0 kg/ha): 100%; % damage (Alopec. myosur.; 1.0 kg/ha): 90%; % damage (Bromus spp.; 1.0 kg/ha): 90%; % damage (Matric. spp.): 60%; % damage (Beta vulg.; 1.0 kg/ha): 0%
Cc1cccc(N(Cn2cccn2)C(=O)CCl)c1C [Compound 17] | 90 | 100 | 100 | 90 | 50 | 75 | –
Cc1ccn(CN(C(=O)CCl)c2c(C)cccc2C)n1 [Compound 67] | – | – | – | – | – | – | % damage (Amar. retro.; 0.25 kg/ha): 100%; % damage (Sorgh. halep.; 0.25 kg/ha): 95%; % damage (Bromus spp.; 0.25 kg/ha): 100%
Cc1cc(C)n(CN(C(=O)CCl)c2ccccc2)n1 [Compound 34] | 95 | 90 | – | 100 | – | – | % damage (Setaria spp.; 1.0 kg/ha): 80%; % damage (Echin. c.g.; 1.0 kg/ha): 90%; % damage (Amar. retro.; 1.0 kg/ha): 100%; % damage (Bromus spp.; 1.0 kg/ha): 95%; % damage (Bromus spp.; 2.0 kg/ha): 95%; % damage (Zea mays; 1.0 kg/ha): 0%; % damage (Zea mays; 2.0 kg/ha): 0%; % damage (Sorgh. bicol.; 1.0 kg/ha): 0%; % damage (Sorgh. bicol.; 2.0 kg/ha): 10%; % damage (Glyc. max; 1.0 kg/ha): 0%; % damage (Glyc. max; 2.0 kg/ha): 0%
CC(C)c1cccc(C(C)C)c1N(Cn1cccn1)C(=O)CCl [Compound 11] | 80 | 100 | 100 | 90 | 90 | 70 | –
CCc1cccc(CC)c1N(Cn1cccn1)C(=O)CCl [Compound 8] | – | – | – | – | – | – | % damage (Amar. retro.; 0.25 kg/ha): 95%; % damage (Sorgh. halep.; 0.25 kg/ha): 85%; % damage (Bromus spp.; 0.25 kg/ha): 100%
Cc1cc(C)n(CN(C(=O)CCl)c2c(C(C)C)cccc2C(C)C)n1 [Compound 44] | 90 | 90 | 100 | 80 | 80 | 40 | –
CCc1cccc(CC)c1N(Cn1ccc(C)n1)C(=O)CCl [Compound 70] | – | – | – | – | – | – | % damage (Amar. retro.; 0.25 kg/ha): 100%; % damage (Sorgh. halep.; 0.25 kg/ha): 75%; % damage (Bromus spp.; 0.25 kg/ha): 100%
Cc1cccc(C(C)C)c1N(Cn1cccn1)C(=O)CCl [Compound 9] | 100 | 100 | 100 | 100 | 100 | 90 | –
